Data published in patent EP0114128A1, “3-Amino-2-oxo-azetidine derivatives containing in position 1 a nitrogen heterocyclic radical, process for their preparation, their use as therapeutical agents and intermediates for their preparation” (priority 1983, dated 1984).
In brackets after ≈: the same amount, converted by molar mass. Where two headings read alike, the source gives them in different places.

Key:
Assay in all cases: In vitro activity, dilution method in liquid medium (MIC)
Assay type in all cases: cell-based
[1] = tested on: Enterobacter cloacae 1321 E; details: read-out: concentrations minimales inhibitrices (C. M. I.)
Description: (§1) Etude pharmacologiaue des produits de l'invention. Activité in vitro, méthode des dilutions en milieu liquide.
(§2) On prépare une série de tubes dans lesquels on répartit une même quantité de milieu nutritif stérile. On distribue dans chaque tube des quantités croissantes du produit à étudier, puis chaque tube est ensemencé avec une souche bactérienne. Après incubation de vingt-quatre ou quarante-huit heures à l'étuve à 37°C, l'inhibition de la croissance est appréciée par transillumination ce qui permet de déterminer les concentrations minimales inhibitrices (C. M. I.) exprimées en µg/cm3.

Escherichia Coli 078 = details: read-out: concentrations minimales inhibitrices (C. M. I.)
Description: as §1, §2

Escherichia Coli 1507 E = details: COLI1507E, read-out: concentrations minimales inhibitrices (C. M. I.)
Description: as §1, §2

Escherichia Coli 1894 = details: read-out: concentrations minimales inhibitrices (C. M. I.)
Description: as §1, §2

Escherichia Coli DC0 = details: read-out: concentrations minimales inhibitrices (C. M. I.)
Description: as §1, §2

Escherichia Coli DC2 = details: read-out: concentrations minimales inhibitrices (C. M. I.)
Description: as §1, §2

Escherichia Coli TEM = details: read-out: concentrations minimales inhibitrices (C. M. I.)
Description: as §1, §2

[2] = tested on: Klebsiella Aeruginosa 1522 E; details: read-out: concentrations minimales inhibitrices (C. M. I.)
Description: as §1, §2

[3] = tested on: Klebsiella pneumonae 52145; details: read-out: concentrations minimales inhibitrices (C. M. I.)
Description: as §1, §2

Proteus mirabilis A 235 = details: read-out: concentrations minimales inhibitrices (C. M. I.)
Description: as §1, §2

Proteus vulgaris A 232 = details: read-out: concentrations minimales inhibitrices (C. M. I.)
Description: as §1, §2

Providencia DU 48 = details: read-out: concentrations minimales inhibitrices (C. M. I.)
Description: as §1, §2

[4] = tested on: Pseudomonas aeruginosa 1771 m; details: read-out: concentrations minimales inhibitrices (C. M. I.)
Description: as §1, §2

[5] = tested on: Salmonella typhimurium MZ 11; details: Salmonella enterica, read-out: concentrations minimales inhibitrices (C. M. I.)
Description: as §1, §2

Serratia marcesceus 2532 = details: read-out: concentrations minimales inhibitrices (C. M. I.)
Description: as §1, §2

[6] = COLI078, 24 H incubation at 37°C
[7] = COLI078, 48 H incubation at 37°C
[8] = COLI1894, 24 H incubation at 37°C
[9] = COLI1894, 48 H incubation at 37°C
[10] = COLIDC0, 24 H incubation at 37°C
[11] = COLIDC0, 48 H incubation at 37°C
[12] = COLIDC2, 24 H incubation at 37°C
[13] = COLIDC2, 48 H incubation at 37°C

Row | SMILES | MIC ([1]; 24 H incubation at 37°C) [µg/mL] | MIC ([1]; 48 H incubation at 37°C) [µg/mL] | MIC (Escherichia Coli 078; [6]) [µg/mL] | MIC (Escherichia Coli 078; [7]) [µg/mL] | MIC (Escherichia Coli 1507 E; 24 H incubation at 37°C) [µg/mL] | MIC (Escherichia Coli 1507 E; 48 H incubation at 37°C) [µg/mL] | MIC (Escherichia Coli 1894; [8]) [µg/mL] | MIC (Escherichia Coli 1894; [9]) [µg/mL] | MIC (Escherichia Coli DC0; [10]) [µg/mL] | MIC (Escherichia Coli DC0; [11]) [µg/mL] | MIC (Escherichia Coli DC2; [12]) [µg/mL] | MIC (Escherichia Coli DC2; [13]) [µg/mL] | MIC (Escherichia Coli TEM; 24 h) [µg/mL] | MIC (Escherichia Coli TEM; 48 h) [µg/mL] | MIC ([2]; 24 H incubation at 37°C) [µg/mL] | MIC ([2]; 48 H incubation at 37°C) [µg/mL] | MIC ([3]; 24 H incubation at 37°C) [µg/mL] | MIC ([3]; 48 H incubation at 37°C) [µg/mL] | MIC (Proteus mirabilis A 235; A235, 24 H incubation at 37°C) [µg/mL] | MIC (Proteus mirabilis A 235; A235, 48 H incubation at 37°C) [µg/mL] | other results
1 | C[C@@H]1[C@H](NC(=O)/C(=N\OC(C)(C)C(=O)O)c2csc(N)n2)C(=O)N1c1nn[nH]n1 (racemic) [Prod. ex.7, (3SR, 4RS) 3-//2-(-2-aminothiazol-4-yl) 2-/(1-carboxy 1-méthyléthoxy) imino/ acétyl/ aminol/4-méthyl 1-(tétrazol-5-yl) 2-azétidinone isomère syn] | 2.5 (≈ 5.9 µM) | 2.5 (≈ 5.9 µM) | 0.3 (≈ 0.709 µM) | 0.6 (≈ 1.42 µM) | 1.2 (≈ 2.83 µM) | 1.2 (≈ 2.83 µM) | 0.6 (≈ 1.42 µM) | 0.6 (≈ 1.42 µM) | 0.6 (≈ 1.42 µM) | 1.2 (≈ 2.83 µM) | 0.6 (≈ 1.42 µM) | 0.6 (≈ 1.42 µM) | 1.2 (≈ 2.83 µM) | 1.2 (≈ 2.83 µM) | 1.2 (≈ 2.83 µM) | 1.2 (≈ 2.83 µM) | 2.5 (≈ 5.9 µM) | 2.5 (≈ 5.9 µM) | 0.15 (≈ 0.354 µM) | 0.15 (≈ 0.354 µM) | MIC (Proteus vulgaris A 232; A232, 24 H incubation at 37°C): 0.08 µg/mL (≈ 0.189 µM); MIC (Proteus vulgaris A 232; A232, 48 H incubation at 37°C): 0.08 µg/mL (≈ 0.189 µM); MIC (Providencia DU 48; DU48, 24 H incubation at 37°C): 0.6 µg/mL (≈ 1.42 µM); MIC (Providencia DU 48; DU48, 48 H incubation at 37°C): 0.6 µg/mL (≈ 1.42 µM); MIC ([4]; 24 H incubation at 37°C): 0.6 µg/mL (≈ 1.42 µM); MIC ([4]; 48 H incubation at 37°C): 0.6 µg/mL (≈ 1.42 µM); MIC ([5]; 24 H incubation at 37°C): 0.6 µg/mL (≈ 1.42 µM); MIC ([5]; 48 H incubation at 37°C): 0.6 µg/mL (≈ 1.42 µM); MIC (Serratia marcesceus 2532; 24 H incubation at 37°C): 1.2 µg/mL (≈ 2.83 µM); MIC (Serratia marcesceus 2532; 48 H incubation at 37°C): 1.2 µg/mL (≈ 2.83 µM)
2 | CO/N=C(\C(=O)N[C@@H]1C(=O)N(c2nn[nH]n2)[C@@H]1C)c1csc(N)n1 (racemic) [Prod. ex. 1, (3SR. 4RS) 3-//2-(2-aminothiazol-4-yl) 2-méthoxyimino acétyl/ amino/-4-méthyl 1-(1H-tétrazol-5-yl)-2-azétidinone isomère syn] | 0.6 (≈ 1.71 µM) | 0.6 (≈ 1.71 µM) | 0.3 (≈ 0.854 µM) | 0.3 (≈ 0.854 µM) | 0.3 (≈ 0.854 µM) | 0.3 (≈ 0.854 µM) | 0.08 (≈ 0.228 µM) | 0.08 (≈ 0.228 µM) | 1.2 (≈ 3.42 µM) | 1.2 (≈ 3.42 µM) | 0.6 (≈ 1.71 µM) | 0.6 (≈ 1.71 µM) | 0.6 (≈ 1.71 µM) | 1.2 (≈ 3.42 µM) | 1.2 (≈ 3.42 µM) | 1.2 (≈ 3.42 µM) | 1.2 (≈ 3.42 µM) | 2.5 (≈ 7.12 µM) | 0.15 (≈ 0.427 µM) | 0.15 (≈ 0.427 µM) | MIC (Proteus vulgaris A 232; A232, 24 H incubation at 37°C): 0.3 µg/mL (≈ 0.854 µM); MIC (Proteus vulgaris A 232; A232, 48 H incubation at 37°C): 0.3 µg/mL (≈ 0.854 µM); MIC (Providencia DU 48; DU48, 24 H incubation at 37°C): 0.6 µg/mL (≈ 1.71 µM); MIC (Providencia DU 48; DU48, 48 H incubation at 37°C): 0.6 µg/mL (≈ 1.71 µM); MIC ([4]; 24 H incubation at 37°C): ≤ 5 µg/mL; MIC ([4]; 48 H incubation at 37°C): ≤ 5 µg/mL; MIC ([5]; 24 H incubation at 37°C): 1.2 µg/mL (≈ 3.42 µM); MIC ([5]; 48 H incubation at 37°C): 1.2 µg/mL (≈ 3.42 µM); MIC (Serratia marcesceus 2532; 24 H incubation at 37°C): 20 µg/mL (≈ 56.9 µM); MIC (Serratia marcesceus 2532; 48 H incubation at 37°C): 20 µg/mL (≈ 56.9 µM)
3 | CO/N=C(\C(=O)N[C@@H]1C(=O)N(c2nn[nH]n2)[C@H]1C)c1csc(N)n1 (racemic) [Prod. ex. 2, (3SR, 4SR) 3-//2-(2-aminothiazol-4-yl) 2-méthoxyimino acétyl/ amino/ 4-méthyl 1-(1H-tétrazol-5-yl) 2-azétidinone] | 1.2 (≈ 3.42 µM) | 1.2 (≈ 3.42 µM) | 0.6 (≈ 1.71 µM) | 0.6 (≈ 1.71 µM) | 0.6 (≈ 1.71 µM) | 0.6 (≈ 1.71 µM) | 0.3 (≈ 0.854 µM) | 0.3 (≈ 0.854 µM) | 2.5 (≈ 7.12 µM) | 2.5 (≈ 7.12 µM) | 0.6 (≈ 1.71 µM) | 1.2 (≈ 3.42 µM) | 10 (≈ 28.5 µM) | 10 (≈ 28.5 µM) | 0.6 (≈ 1.71 µM) | 0.6 (≈ 1.71 µM) | 2.5 (≈ 7.12 µM) | 2.5 (≈ 7.12 µM) | 0.6 (≈ 1.71 µM) | 1.2 (≈ 3.42 µM) | MIC (Proteus vulgaris A 232; A232, 24 H incubation at 37°C): 1.2 µg/mL (≈ 3.42 µM); MIC (Proteus vulgaris A 232; A232, 48 H incubation at 37°C): 2.5 µg/mL (≈ 7.12 µM); MIC (Providencia DU 48; DU48, 24 H incubation at 37°C): 1.2 µg/mL (≈ 3.42 µM); MIC (Providencia DU 48; DU48, 48 H incubation at 37°C): 1.2 µg/mL (≈ 3.42 µM); MIC ([4]; 24 H incubation at 37°C): ≤ 5 µg/mL; MIC ([4]; 48 H incubation at 37°C): ≤ 5 µg/mL; MIC ([5]; 24 H incubation at 37°C): 1.2 µg/mL (≈ 3.42 µM); MIC ([5]; 48 H incubation at 37°C): 2.5 µg/mL (≈ 7.12 µM); MIC (Serratia marcesceus 2532; 24 H incubation at 37°C): 20 µg/mL (≈ 56.9 µM); MIC (Serratia marcesceus 2532; 48 H incubation at 37°C): > 40 µg/mL
